Laboratory results reported in PMC11571207, “Stereorandomized Oncocins with Preserved Ribosome Binding and Antibacterial Activity” (Journal of Medicinal Chemistry, 2024).
Like-named read-outs stand apart in the source and are kept apart here. No end group written: not given here.

Assays:
[1] = tested on: P. aeruginosa PA14 4.18 (pmrB); conditions: for MIC P. aeruginosa PA14 4.18: supplement CSV
human red blood cells = assay: Hemolysis assay, minimum hemolytic concentration
K. pneumoniae NCTC 418 = assay: microbe, parasite or virus in culture; conditions: for MIC K. pneumoniae NCTC418: supplement CSV
In short: (§1)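 Read-out was visible growth after MTT addition, the MIC being the lowest inhibitory peptide concentration. Bacteria grown to log phase in LB were exposed in MH medium to peptide from 64 μg/mL in twofold dilutions for 15-18h at 37°C.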

P. aeruginosa PAO1 = assay: microbe, parasite or virus in culture; conditions: for MIC P. aeruginosa PAO1: supplement CSV
In short: as §1

A. baumannii ATCC19606 = assay: microbe, parasite or virus in culture; conditions: for MIC A. baumannii ATCC19606: supplement CSV
In short: as §1

E. coli W3110 = assay: microbe, parasite or virus in culture; conditions: for MIC E. coli W3110: supplement CSV
In short: as §1

S. aureus COL (MRSA) = assay: microbe, parasite or virus in culture; conditions: for MIC S. aureus COL (MRSA): supplement CSV
In short: as §1

[2] = tested on: P. aeruginosa PA14 2P4 (pmrB); assay: microbe, parasite or virus in culture; conditions: for MIC P. aeruginosa PA14 2P4: supplement CSV
In short: (§2)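 Minimal inhibitory concentrations come from broth microdilution in MH medium, with a top peptide concentration of 64 μg/mL halved serially.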

P. aeruginosa PA14 = assay: microbe, parasite or virus in culture; conditions: for MIC P. aeruginosa PA14: supplement CSV
In short: as §2

K. pneumoniae OXA-48 = assay: microbe, parasite or virus in culture; conditions: for MIC K. pneumoniae OXA-48: supplement CSV
In short: as §2

P. aeruginosa ZEM9A = assay: microbe, parasite or virus in culture; conditions: for MIC P. aeruginosa ZEM9A: supplement CSV
In short: as §2

E. cloacae = assay: microbe, parasite or virus in culture; conditions: for MIC E. cloacae: supplement CSV
In short: as §2

P. aeruginosa ZEM-1A = assay: microbe, parasite or virus in culture
In short: as §2

[3] = tested on: P. aeruginosa PA14 4.13 (phoQ); conditions: for MIC P. aeruginosa PA14 4.13: supplement CSV
[4] = polymyxin B resistant strain, 12.5% MHB pH 7.4, 16–20 h at 37 °C
[5] = polymyxin B resistant strain, full MHB pH 7.4, 16–20 h at 37 °C

## VDKPPYLPRPRPPRRIYNR [sr8Cterm-Onc] (VDKPPYLPRPRPPRRIYNR-NH2; also: residues 12-19 stereorandomized (1:1 L/D mixture))
[1]; [4]
  MIC P. aeruginosa PA14 4.18 (pmrB), 12.5% MHB: 8 µg/mL
[1]; [5]
  MIC P. aeruginosa PA14 4.18 (pmrB), full MHB: 64 µg/mL
[1]; 12.5% MH pH 7.4
  MIC P. aeruginosa PA14 4.18: 8 µg/mL
[1]; full MH pH 7.4
  MIC P. aeruginosa PA14 4.18: 64 µg/mL
Human red blood cells; 2.5% human red blood cells (final) in 10 mM phosphate, 150 mM NaCl, pH 7.4, 25 °C, 4 h, visual inspection
  Haemolysis on hRBC, MHC: >1000 µg/mL
Human red blood cells; supplement CSV
  MHC human red blood cells: >1000 µg/mL
K. pneumoniae NCTC 418; K. pneumoniae NCTC 418, 12.5% Müller–Hinton medium, 16–20 h at 37 °C
  MIC K. pneumoniae, 12.5% MHB: 2 µg/mL
K. pneumoniae NCTC 418; K. pneumoniae NCTC 418, full Müller–Hinton medium, 16–20 h at 37 °C
  MIC K. pneumoniae, Full MHB: 4 µg/mL
K. pneumoniae NCTC 418; 12.5% MH pH 7.4
  MIC K. pneumoniae NCTC418: 2 µg/mL
K. pneumoniae NCTC 418; full MH pH 7.4
  MIC K. pneumoniae NCTC418: 4 µg/mL
P. aeruginosa PAO1; P. aeruginosa PAO1, 12.5% Müller–Hinton medium, 16–20 h at 37 °C
  MIC P. aeruginosa, 12.5% MHB: 8 µg/mL
P. aeruginosa PAO1; P. aeruginosa PAO1, full Müller–Hinton medium, 16–20 h at 37 °C
  MIC P. aeruginosa, Full MHB: 64 µg/mL
P. aeruginosa PAO1; 12.5% MH pH 7.4
  MIC P. aeruginosa PAO1: 8 µg/mL
P. aeruginosa PAO1; full MH pH 7.4
  MIC P. aeruginosa PAO1: 64 µg/mL
A. baumannii ATCC19606; A. baumannii ATCC19606, 12.5% Müller–Hinton medium, 16–20 h at 37 °C
  MIC A. baumannii, 12.5% MHB: 4 µg/mL
A. baumannii ATCC19606; A. baumannii ATCC19606, full Müller–Hinton medium, 16–20 h at 37 °C
  MIC A. baumannii, Full MHB: 32 µg/mL
A. baumannii ATCC19606; 12.5% MH pH 7.4
  MIC A. baumannii ATCC19606: 4 µg/mL
A. baumannii ATCC19606; full MH pH 7.4
  MIC A. baumannii ATCC19606: 32 µg/mL
E. coli W3110; E. coli W3110, 12.5% Müller–Hinton medium, 16–20 h at 37 °C, broth microdilution
  MIC E. coli, 12.5% MHB: 4 µg/mL
E. coli W3110; E. coli W3110, full Müller–Hinton medium, 16–20 h at 37 °C, broth microdilution
  MIC E. coli, Full MHB: 8 µg/mL
E. coli W3110; 12.5% MH pH 7.4
  MIC E. coli W3110: 4 µg/mL
E. coli W3110; full MH pH 7.4
  MIC E. coli W3110: 8 µg/mL
S. aureus COL (MRSA); S. aureus COL (MRSA), 12.5% Müller–Hinton medium, 16–20 h at 37 °C
  MIC S. aureus, 12.5% MHB: > 16 µg/mL
S. aureus COL (MRSA); S. aureus COL (MRSA), full Müller–Hinton medium, 16–20 h at 37 °C
  MIC S. aureus, Full MHB: > 64 µg/mL
S. aureus COL (MRSA); 12.5% MH pH 7.4
  MIC S. aureus COL (MRSA): >16 µg/mL
S. aureus COL (MRSA); full MH pH 7.4
  MIC S. aureus COL (MRSA): >64 µg/mL
[2]; [4]
  MIC P. aeruginosa PA14 2P4 (pmrB), 12.5% MHB: 2 µg/mL
[2]; [5]
  MIC P. aeruginosa PA14 2P4 (pmrB), full MHB: > 64 µg/mL
[2]; 12.5% MH pH 7.4
  MIC P. aeruginosa PA14 2P4: 2 µg/mL
[2]; full MH pH 7.4
  MIC P. aeruginosa PA14 2P4: >64 µg/mL
P. aeruginosa PA14; 12.5% MHB pH 7.4, 16–20 h at 37 °C, two different duplicate MIC determinations
  MIC P. aeruginosa PA14, 12.5% MHB: 8 µg/mL
P. aeruginosa PA14; full MHB pH 7.4, 16–20 h at 37 °C, two different duplicate MIC determinations
  MIC P. aeruginosa PA14, full MHB: > 64 µg/mL
P. aeruginosa PA14; 12.5% MH pH 7.4
  MIC P. aeruginosa PA14: 8 µg/mL
P. aeruginosa PA14; full MH pH 7.4
  MIC P. aeruginosa PA14: >64 µg/mL
K. pneumoniae OXA-48; carbapenem-resistant, 12.5% MHB pH 7.4, 16–20 h at 37 °C
  MIC K. pneumoniae OXA-48, 12.5% MHB: 16 µg/mL
K. pneumoniae OXA-48; carbapenem-resistant, full MHB pH 7.4, 16–20 h at 37 °C
  MIC K. pneumoniae OXA-48, full MHB: 32 µg/mL
K. pneumoniae OXA-48; 12.5% MH pH 7.4
  MIC K. pneumoniae OXA-48: 16 µg/mL
K. pneumoniae OXA-48; full MH pH 7.4
  MIC K. pneumoniae OXA-48: 32 µg/mL
P. aeruginosa ZEM9A; clinical isolate, 12.5% MHB pH 7.4, 16–20 h at 37 °C
  MIC P. aeruginosa ZEM9A, 12.5% MHB: 8 µg/mL
P. aeruginosa ZEM9A; clinical isolate, full MHB pH 7.4, 16–20 h at 37 °C
  MIC P. aeruginosa ZEM9A, full MHB: > 64 µg/mL
P. aeruginosa ZEM9A; 12.5% MH pH 7.4
  MIC P. aeruginosa ZEM9A: 8 µg/mL
P. aeruginosa ZEM9A; full MH pH 7.4
  MIC P. aeruginosa ZEM9A: >64 µg/mL
E. cloacae; 12.5% MHB pH 7.4, 16–20 h at 37 °C
  MIC E. cloacae, 12.5% MHB: 0.5 µg/mL
E. cloacae; full MHB pH 7.4, 16–20 h at 37 °C
  MIC E. cloacae, full MHB: > 64 µg/mL
E. cloacae; 12.5% MH pH 7.4
  MIC E. cloacae: 0.5 µg/mL
E. cloacae; full MH pH 7.4
  MIC E. cloacae: >64 µg/mL
P. aeruginosa ZEM-1A; clinical isolate, 12.5% MHB pH 7.4, 16–20 h at 37 °C, cells marked c: single measurement (in duplicates)
  MIC P. aeruginosa ZEM-1A, 12.5% MHB: 4 to 8 µg/mL
P. aeruginosa ZEM-1A; clinical isolate, full MHB pH 7.4, 16–20 h at 37 °C, cells marked c: single measurement (in duplicates)
  MIC P. aeruginosa ZEM-1A, full MHB: 64 µg/mL
P. aeruginosa ZEM-1A; supplement CSV, 12.5% MH pH 7.4
  MIC P. aeruginosa ZEM-1A: 4 to 8 µg/mL
[3]; [4]
  MIC P. aeruginosa PA14 4.13 (phoQ), 12.5% MHB: 8 µg/mL
[3]; [5]
  MIC P. aeruginosa PA14 4.13 (phoQ), full MHB: 64 µg/mL
[3]; 12.5% MH pH 7.4
  MIC P. aeruginosa PA14 4.13: 8 µg/mL
[3]; full MH pH 7.4
  MIC P. aeruginosa PA14 4.13: 64 µg/mL
